Values of other authors as cited in US20170215417A1, “ANTIMICROBIAL COMPOSITIONS” (LIVIONEX, Inc., priority 2013, published 2017).
Where two headings read alike, the source gives them in different places.

Tests used:
[1] = system: Trichomichosis axillaris polymicrobial infection; details: for average time for resolution of the disease: then antimicrobial cream or lotion (Kim, Korean J Med Mycol. 2005)
[2] = @ 79° F.

water solubility [2] [% w/v]	Compound	irritation and contact dermatitis with standard treatment ([1]; human, in vivo)	average time for resolution of the disease ([1]; standard treatment: shaving) [weeks]	irritation and contact dermatitis with standard treatment ([1]; standard treatment: shaving, then antimicrobial cream or lotion)
–	CC[C@H]1OC(=O)[C@H](C)[C@@H](O[C@H]2C[C@@](C)(OC)[C@@H](O)[C@H](C)O2)[C@H](C)[C@@H](O[C@@H]2O[C@H](C)C[C@H](N(C)C)[C@H]2O)[C@](C)(O)C[C@@H](C)C(=O)[C@H](C)[C@@H](O)[C@]1(C)O [erythromycin]	often results in irritation and contact dermatitis	3	–
–	O=C(OOC(=O)c1ccccc1)c1ccccc1 [benzoyl peroxide]	–	3	often results in irritation and contact dermatitis
34	CS(C)(=O)=O [MSM, methylsulfonylmethane]	–	–	–
